{"source": "patent EP1228063B1", "about": "“SUBSTITUTED PYRIDINES AND PYRIDAZINES WITH ANGIOGENESIS INHIBITING ACTIVITY” (BAYER CORPORATION, priority 1999, dated 2001)", "key": {"[1]": {"biological_target": "T1, NIH3T3 cells expressing the full length KDR receptor (Homo sapiens, UniProt P35968)", "T1 construct": "NIH3T3 cells expressing the full length KDR receptor; expressed in transfected cells; host or cells: NIH3T3 cells (G418 selection)", "T1 sequence (P35968 20-1356)": "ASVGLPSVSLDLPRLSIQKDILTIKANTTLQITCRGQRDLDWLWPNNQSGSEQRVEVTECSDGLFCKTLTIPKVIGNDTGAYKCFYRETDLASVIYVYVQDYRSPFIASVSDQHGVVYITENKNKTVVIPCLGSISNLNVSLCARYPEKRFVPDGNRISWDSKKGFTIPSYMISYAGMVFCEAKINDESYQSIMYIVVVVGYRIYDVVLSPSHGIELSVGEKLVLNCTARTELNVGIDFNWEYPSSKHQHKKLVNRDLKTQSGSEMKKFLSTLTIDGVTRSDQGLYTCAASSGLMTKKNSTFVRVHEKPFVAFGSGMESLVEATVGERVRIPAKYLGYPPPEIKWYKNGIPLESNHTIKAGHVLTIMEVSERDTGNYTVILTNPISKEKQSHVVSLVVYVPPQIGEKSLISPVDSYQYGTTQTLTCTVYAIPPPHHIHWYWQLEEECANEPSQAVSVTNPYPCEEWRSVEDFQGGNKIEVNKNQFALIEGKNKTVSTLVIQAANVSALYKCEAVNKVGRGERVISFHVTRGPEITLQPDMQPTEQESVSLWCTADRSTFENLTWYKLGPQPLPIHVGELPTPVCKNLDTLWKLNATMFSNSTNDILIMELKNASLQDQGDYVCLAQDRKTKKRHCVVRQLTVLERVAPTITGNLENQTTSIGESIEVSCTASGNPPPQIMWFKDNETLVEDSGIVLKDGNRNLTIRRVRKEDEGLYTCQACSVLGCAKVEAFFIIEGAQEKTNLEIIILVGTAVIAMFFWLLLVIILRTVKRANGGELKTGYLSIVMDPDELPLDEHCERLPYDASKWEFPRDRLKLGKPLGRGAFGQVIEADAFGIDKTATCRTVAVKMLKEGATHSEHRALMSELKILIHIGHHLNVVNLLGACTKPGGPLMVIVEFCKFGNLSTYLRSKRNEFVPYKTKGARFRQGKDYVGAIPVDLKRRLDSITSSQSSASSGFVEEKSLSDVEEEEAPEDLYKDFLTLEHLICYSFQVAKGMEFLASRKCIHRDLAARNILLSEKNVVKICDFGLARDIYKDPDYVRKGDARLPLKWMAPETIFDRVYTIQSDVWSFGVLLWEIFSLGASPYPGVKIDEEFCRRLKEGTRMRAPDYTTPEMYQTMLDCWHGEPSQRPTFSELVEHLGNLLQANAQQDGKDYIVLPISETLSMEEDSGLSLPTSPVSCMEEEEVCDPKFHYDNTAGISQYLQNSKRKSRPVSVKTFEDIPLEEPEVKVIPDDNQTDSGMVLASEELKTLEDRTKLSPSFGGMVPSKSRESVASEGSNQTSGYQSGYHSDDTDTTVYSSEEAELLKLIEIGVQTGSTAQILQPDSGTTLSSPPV", "test": "Cell mechanistic assay - Inhibition of 3T3 KDR phosphorylation", "format": "cell-based", "settings": "VEGF (30 ng / ml) stimulated KDR phosphorylation in NIH3T3 cells, 30 minutes preincubation", "procedure": "NIH3T3 cells expressing the full length KDR receptor were grown in DMEM (Life Technologies, Inc., Grand Island, NY) supplemented with 10% newborn calf serum, low glucose, 25 mM /L sodium pyruvate, pyridoxine hydrochloride and 0.2 mg/ ml of G418 (Life Technologies Inc., Grand Island, NY). The cells were maintained in collagen I-coated T75 flasks (Becton Dickinson Labware, Bedford, MA) in a humidified 5% CO2 atmosphere at 37°C.\nFifteen thousand cells were plated into each well of a collagen 1-coated 96-well plate in the DMEM growth medium. Six hours later, the cells were washed and the medium was replaced with DMEM without serum. After overnight culture to quiesce the cells, the medium was replaced by Dulbecco's phosphate-buffered saline (Life Technologies Inc., Grand Island, NY) with 0.1 % bovine albumin (Sigma Chemical Co., St Louis, MO). After adding various concentrations (0-300 nM) of test compounds to the cells in 1% final concentration of DMSO, the cells were incubated at room temperature for 30 minutes. The cells were then treated with VEGF (30 ng / ml) for 10 minutes at room temperature. Following VEGF stimulation, the buffer was removed and the cells were lysed by addition of 150 µl of extraction buffer (50 mM Tris, pH 7.8, supplemented with 10% glycerol, 50 mM BGP, 2 mM EDTA, 10 mM NaF, 0.5 mM NaVO4, and 0.3% TX-100) at 4°C for 30 minutes.\nTo assess receptor phosphorylation, 100 microliters of each cell lysate was added to the wells of an ELISA plate precoated with 300 ng of antibody C20 (Santa Cruz Biotechnology, Inc., Santa Cruz , CA). Following a 60-minute incubation, the plate was washed and bound KDR was probed for phosphotyrosine using an anti-phosphotyrosine mAb clone 4G10 (Upstate Biotechnology, Lake Placid, NY). The plate was washed and wells were incubated with anti-mouse IgG/HRP conjugate (Amersham International plc, Buckinghamshire, England) for 60 minutes. Wells were washed and phosphotyrosine was quantitated by addition of 100 µl per well of 3,3',5,5' tetramethylbenzidine (Kirkegaard and Perry, TMB Microwell 1 Component peroxidase substrate) solution. Color development was arrested by the addition of 100 µl 1% HCl based stop solution (Kirkegaard and Perry, TMB 1 Component Stop Solution).\nOptical densities (OD) were determined spectrophotometrically at 450 nm in a 96-well plate reader (SpectraMax 250, Molecular Devices). Background (no VEGF added) OD values were subtracted from all ODs and percent inhibition was calculated according to the equation: % Inhibition = ((OD(VEGF control)-OD(with test compound)) × 100)/(OD(VEGF control)-OD(no VEGF added)) [formula]\nIC50s were determined on some of the exemplary materials with a least squares analysis program using compound concentration versus percent inhibition. Compounds that have IC50 ≤ 20 nM in this assay include those of Examples 2, 6, 10, 11, 14, 23, 96, 101, 102, 103, 104, 105. Compounds that have IC50 values between 20 nM and 50 nM include those of examples 1, 4, 8, 9, 12, 13, 17, 24, 93, 98. Compounds that have IC50 values between 50 nM and 400 nM include those of examples 97, 99, and 100."}, "[2]": {"tested_on": "SK-MEL2 human tumor cells that were transfected with a plasmid containing the murine VEGF gene", "test": "Matrigel Angiogenesis Model (hemoglobin content of Matrigel pellets)", "format": "in vivo, Mice", "settings": "vs. vehicle control animals, 12 days post-implantation", "procedure": "Preparation of Matrigel Plugs and in vivo Phase: Matrigel® (Collaborative Biomedical Products, Bedford, MA) is a basement membrane extract from a murine tumor composed primarily of laminin, collagen IV and heparan sulfate proteoglycan. It is provided as a sterile liquid at 4° C, but rapidly forms a solid gel at 37° C.\nLiquid Matrigel at 4° C was mixed with SK-MEL2 human tumor cells that were transfected with a plasmid containing the murine VEGF gene with a selectable marker. Tumor cells were grown in vitro under selection and cells were mixed with cold liquid Matrigel at a ratio of 2 X 10^6 per 0.5 ml. […]\nOptical densities were determined spectrophotometrically at 600 nm in a 96-well plate reader, SpectraMax 250 Microplate Spectrophotometer System (Molecular Devices, Sunnyvale, CA). Background Lysis Buffer readings were subtracted from all wells.\nTotal sample hemoglobin content was calculated according to the following equation: Total Hemoglobin = (Sample Lysate Volume) × (Hemoglobin Concentration) [formula]\nThe average Total Hemoglobin of Matrigel samples without cells was subtracted from each Total Hemoglobin Matrigel sample with cells. Percent inhibition was calculated according to the following equation: % Inhibition = ((Average Total Hemoglobin Drug-Treated Tumor Lysates) × 100)/((Average Total Hemoglobin Non-Treated Tumor Lysates)) [formula] […]"}}, "note": "pIC50: −log10 of the molar value.", "data": [{"smiles": "Clc1ccc(Nc2nnc(OCc3ccncc3)c3sccc23)cc1", "note": "[Example 8, 4-(4-chlorophenylamino)-7-(4-pyridylmethoxy)thieno-[2,3-d]pyridazine]", "values": [{"measurement": "pIC50", "setting": "[1]", "result": "7.30 to 7.70"}, {"measurement": "inhibition of total hemoglobin content of the Matrigel samples", "setting": "[2]; 100 mg/kg po sid", "result": "> 60", "unit": "%"}, {"measurement": "inhibition of total hemoglobin content of the Matrigel samples", "setting": "[2]; 300 mg/kg po sid", "result": "> 60", "unit": "%"}]}]}
